Results from patent US9181236B2, “2-spiro-substituted iminothiazines and their mono-and dioxides as bace inhibitors, compositions and their use” (Merck Sharp & Dohme Corp., priority 2011, dated 2015).

Each compound was assayed against soluble human BACE1 catalytic domain (Homo sapiens (Human), UniProt P56817) (assay: BACE1 HTRF FRET Assay). Details: Ki calculated from IC50 using the Cheng-Prusoff equation.
Assay type: biochemical
Source text: A homogeneous time-resolved FRET assay can be used to determine IC50 values for inhibitors of the soluble human BACE1 catalytic domain. This assay monitors the increase of 620 nm fluorescence that resulted from BACE1 cleavage of an APPswedish APP^swe mutant peptide FRET substrate (QSY7-[…]-Europium-amide). This substrate contains an N-terminal QSY7 moiety that serves as a quencher of the C-terminal Europium fluorophore (620 nm Em). In the absence of enzyme activity, 620 nm fluorescence is low in the assay and increased linearly over 3 hours in the presence of uninhibited BACE1 enzyme Inhibition of BACE1 cleavage of the QSY7-APP^swe-Eu substrate by inhibitors is manifested as a suppression of 620 nm fluorescence.
Reactions are initiated by addition of 10 μl of 600 nM QSY7-APP^swe-Eu substrate (200 nM final) to give a final reaction volume of 30 μl in a 384 well Nunc HTRF plate. The reactions are incubated at 30° C. for 1.5 hours. The 620 nm fluorescence is then read on a Rubystar HTRF plate reader (BMG Labtechnologies) using a 50 millisecond delay followed by a 400 millisecond acquisition time window Inhibitor IC50 values are derived from non-linear regression analysis of concentration response curves.

Sequence of soluble human BACE1 catalytic domain (P56817 75-416): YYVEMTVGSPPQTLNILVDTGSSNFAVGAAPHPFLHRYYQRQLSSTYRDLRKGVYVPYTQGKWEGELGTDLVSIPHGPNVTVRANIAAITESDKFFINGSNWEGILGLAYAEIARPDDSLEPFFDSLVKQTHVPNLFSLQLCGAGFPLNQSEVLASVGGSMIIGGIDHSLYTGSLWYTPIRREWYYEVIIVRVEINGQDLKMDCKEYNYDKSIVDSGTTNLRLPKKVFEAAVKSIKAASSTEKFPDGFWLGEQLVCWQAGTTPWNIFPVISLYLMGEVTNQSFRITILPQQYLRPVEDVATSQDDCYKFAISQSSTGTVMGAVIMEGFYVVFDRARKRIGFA

Row | SMILES | Ki [nM]
1 | C[C@@]1(c2cc(N)ccc2F)CS(=O)(=O)C2(CCCC2)C(=N)N1 | 4130
2 | C[C@@]1(c2cc(N)ccc2F)CS(=O)(=O)C2(CCOCC2)C(=N)N1 | 7020
3 | C[C@@]1(c2sc(Br)cc2Cl)CS(=O)(=O)C2(CCCC2)C(=N)N1 | 447
4 | C[C@@]1(c2sc(Br)cc2Cl)CS(=O)(=O)C2(CCCCC2)C(=N)N1 | 2610
5 | C[C@@]1(c2sc(Br)cc2Cl)CS(=O)(=O)C2(CCOCC2)C(=N)N1 | 2370
6 | C[C@@]1(c2sc(C(=O)NCc3cnn4ccccc34)cc2Cl)CS(=O)(=O)C2(CCCCC2)C(=N)N1 [Example 80b] | 41
7 | C[C@@]1(c2sc(C(=O)NCc3ccncn3)cc2Cl)CS(=O)(=O)C2(CCCCC2)C(=N)N1 [Example 80c] | 4150
8 | C[C@@]1(c2sc(C(=O)NCc3cccc(F)c3)cc2Cl)CS(=O)(=O)C2(CCCCC2)C(=N)N1 [Example 80d] | 5120
9 | C[C@@]1(c2sc(C(=O)NCc3ccc(F)cc3)cc2Cl)CS(=O)(=O)C2(CCCCC2)C(=N)N1 [Example 80e] | 588
10 | C[C@@]1(c2sc(C(=O)NCc3ccc(C#N)cc3)cc2Cl)CS(=O)(=O)C2(CCCCC2)C(=N)N1 [Example 80f] | 851
11 | Cc1cncc(NC(=O)c2cc(Cl)c([C@]3(C)CS(=O)(=O)C4(CCCCC4)C(=N)N3)s2)c1 [Example 80g] | 2160
12 | Cc1cc2cccc(NC(=O)c3cc(Cl)c([C@]4(C)CS(=O)(=O)C5(CCCCC5)C(=N)N4)s3)c2o1 [Example 80i] | 6050
13 | Cn1ccc(NC(=O)c2cc(Cl)c([C@]3(C)CS(=O)(=O)C4(CCCCC4)C(=N)N3)s2)n1 [Example 80j] | 2010
14 | C[C@@]1(c2sc(C(=O)NCc3ccsn3)cc2Cl)CS(=O)(=O)C2(CCCCC2)C(=N)N1 [Example 80k] | 121
15 | COc1cccc(NC(=O)c2cc(Cl)c([C@]3(C)CS(=O)(=O)C4(CCCCC4)C(=N)N3)s2)n1 [Example 80l] | 207
16 | CCc1cccc(NC(=O)c2cc(Cl)c([C@]3(C)CS(=O)(=O)C4(CCCCC4)C(=N)N3)s2)n1 [Example 80m] | 717
17 | C[C@@]1(c2cc(NC(=O)C3CC3)ccc2F)CS(=O)(=O)[C@]2(CCOC2)C(=N)N1 [Example 81] | 5170
18 | CCOCC(=O)Nc1ccc(F)c([C@]2(C)CS(=O)(=O)[C@]3(CCOC3)C(=N)N2)c1 [Example 81a] | 4150
19 | C[C@@]1(c2cc(NC(=O)c3ccc(OC(F)(F)F)cn3)ccc2F)CS(=O)(=O)[C@]2(CCOC2)C(=N)N1 [Example 81aa] | 304
20 | C[C@@]1(c2cc(NC(=O)c3ncccc3C(F)(F)F)ccc2F)CS(=O)(=O)[C@]2(CCOC2)C(=N)N1 [Example 81ab] | 146
21 | CC(F)(F)C(=O)Nc1ccc(F)c([C@]2(C)CS(=O)(=O)[C@]3(CCOC3)C(=N)N2)c1 [Example 81ad] | 313
22 | COc1ccc(C(=O)Nc2ccc(F)c([C@]3(C)CS(=O)(=O)[C@]4(CCOC4)C(=N)N3)c2)nn1 [Example 81ae] | 904
23 | Cc1cc(C(=O)Nc2ccc(F)c([C@]3(C)CS(=O)(=O)[C@]4(CCOC4)C(=N)N3)c2)no1 [Example 81af] | 1330
24 | C[C@@]1(c2cc(NC(=O)c3ncc(Cl)cc3C#N)ccc2F)CS(=O)(=O)[C@]2(CCOC2)C(=N)N1 [Example 81ag] | 5.7

Row | SMILES | Ki [nM]
25 | C[C@@]1(c2cc(NC(=O)c3ccno3)ccc2F)CS(=O)(=O)[C@]2(CCOC2)C(=N)N1 [Example 81b] | 300
26 | C[C@@]1(c2cc(NC(=O)c3cocn3)ccc2F)CS(=O)(=O)[C@]2(CCOC2)C(=N)N1 [Example 81c] | 180
27 | C[C@@]1(c2cc(NC(=O)C3CCO3)ccc2F)CS(=O)(=O)[C@]2(CCOC2)C(=N)N1 (stereo partly drawn) [Example 81d] | 488
28 | CC1(C(=O)Nc2ccc(F)c([C@]3(C)CS(=O)(=O)[C@]4(CCOC4)C(=N)N3)c2)CC1 [Example 81e] | 998
29 | C[C@@]1(c2cc(NC(=O)C3CCC3)ccc2F)CS(=O)(=O)[C@]2(CCOC2)C(=N)N1 [Example 81f] | 2080
30 | C[C@@]1(c2cc(NC(=O)CC3CC3)ccc2F)CS(=O)(=O)[C@]2(CCOC2)C(=N)N1 [Example 81g] | 2960
31 | Cc1cnc(C(=O)Nc2ccc(F)c([C@]3(C)CS(=O)(=O)[C@]4(CCOC4)C(=N)N3)c2)cn1 [Example 81h] | 108
32 | C[C@@]1(c2cc(NC(=O)C3(C#N)CC3)ccc2F)CS(=O)(=O)[C@]2(CCOC2)C(=N)N1 [Example 81i] | 741
33 | C[C@@]1(c2cc(NC(=O)[C@H]3CCCO3)ccc2F)CS(=O)(=O)[C@]2(CCOC2)C(=N)N1 [Example 81j] | 1400
34 | C[C@@]1(c2cc(NC(=O)c3ncc(F)cc3F)ccc2F)CS(=O)(=O)[C@]2(CCOC2)C(=N)N1 [Example 81k] | 26
35 | CCC(=O)Nc1ccc(F)c([C@]2(C)CS(=O)(=O)[C@]3(CCOC3)C(=N)N2)c1 [Example 81l] | 949
36 | C[C@@]1(c2cc(NC(=O)c3ccc(Cl)cc3)ccc2F)CS(=O)(=O)[C@]2(CCOC2)C(=N)N1 [Example 81m] | 82
37 | C[C@@]1(c2cc(NC(=O)C(F)F)ccc2F)CS(=O)(=O)[C@]2(CCOC2)C(=N)N1 [Example 81n] | 639
38 | C[C@@]1(c2cc(NC(=O)C3CCC3(F)F)ccc2F)CS(=O)(=O)[C@]2(CCOC2)C(=N)N1 (stereo partly drawn) [Example 81o] | 3710
39 | CC1(C(=O)Nc2ccc(F)c([C@]3(C)CS(=O)(=O)[C@]4(CCOC4)C(=N)N3)c2)COC1 [Example 81p] | 4180
40 | C[C@@]1(c2cc(NC(=O)CC(F)(F)F)ccc2F)CS(=O)(=O)[C@]2(CCOC2)C(=N)N1 [Example 81r] | 3170
41 | C[C@@]1(c2cc(NC(=O)C3CC3(F)F)ccc2F)CS(=O)(=O)[C@]2(CCOC2)C(=N)N1 (stereo partly drawn) [Example 81s] | 1250
42 | C[C@@]1(c2cc(NC(=O)c3cncs3)ccc2F)CS(=O)(=O)[C@]2(CCOC2)C(=N)N1 [Example 81t] | 1940
43 | C[C@@]1(c2cc(NC(=O)c3cscn3)ccc2F)CS(=O)(=O)[C@]2(CCOC2)C(=N)N1 [Example 81u] | 433
44 | COCC(=O)Nc1ccc(F)c([C@]2(C)CS(=O)(=O)[C@]3(CCOC3)C(=N)N2)c1 [Example 81w] | 429
45 | CC(=O)Nc1ccc(F)c([C@]2(C)CS(=O)(=O)[C@]3(CCOC3)C(=N)N2)c1 [Example 81x] | 1520
46 | Cc1ccc(C(=O)Nc2ccc(F)c([C@]3(C)CS(=O)(=O)[C@]4(CCOC4)C(=N)N3)c2)nc1 [Example 81y] | 41
47 | C[C@@]1(c2cc(NC(=O)c3ccc(S(C)(=O)=O)cn3)ccc2F)CS(=O)(=O)[C@]2(CCOC2)C(=N)N1 [Example 81z] | 3170

Same assay, conditions: read-out: BACE1 % Inh. at 10 μM

Row | SMILES | inhibition at 10 µM [%]
48 | Cc1ncc(NC(=O)c2cc(Cl)c([C@]3(C)CS(=O)(=O)C4(CCCCC4)C(=N)N3)s2)cn1 [Example 80h] | 32
49 | CC(C)C(F)(F)c1ccc(C(=O)Nc2ccc(F)c([C@]3(C)CS(=O)(=O)[C@]4(CCOC4)C(=N)N3)c2)nc1 [Example 81ac] | 35
50 | C[C@@]1(c2cc(NC(=O)C3CCOCC3)ccc2F)CS(=O)(=O)[C@]2(CCOC2)C(=N)N1 [Example 81q] | 15
51 | C[C@@]1(c2cc(NC(=O)c3ccc(F)cc3F)ccc2F)CS(=O)(=O)[C@]2(CCOC2)C(=N)N1 [Example 81v] | 58

The compounds below were run against purified human autoBACE-2 (Homo sapiens (Human), UniProt Q9Y5Z0) (assay: BACE-2 Assay (BACE-HTRF assay)). Details: Ki calculated from IC50 using the Cheng-Prusoff equation; read-out: BACE2 Ki.
Sequence of purified human autoBACE-2 (Q9Y5Z0 63-473 limits assumed): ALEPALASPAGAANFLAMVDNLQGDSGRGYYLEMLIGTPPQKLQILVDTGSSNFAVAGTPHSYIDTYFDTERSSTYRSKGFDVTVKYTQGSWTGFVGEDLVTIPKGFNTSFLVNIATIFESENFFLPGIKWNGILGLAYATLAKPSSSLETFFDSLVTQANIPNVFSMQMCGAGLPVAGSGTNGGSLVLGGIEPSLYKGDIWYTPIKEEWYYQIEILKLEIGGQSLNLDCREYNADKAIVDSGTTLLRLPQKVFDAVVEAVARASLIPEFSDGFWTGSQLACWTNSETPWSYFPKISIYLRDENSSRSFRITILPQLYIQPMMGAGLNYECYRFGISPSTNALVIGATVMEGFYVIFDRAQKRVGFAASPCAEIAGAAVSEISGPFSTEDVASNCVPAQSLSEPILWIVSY
Assay type: biochemical
Experimental: Inhibitor IC50s at purified human autoBACE-2 are determined in a time-resolved endpoint proteolysis assay that measures hydrolysis of the QSY7-[…]-Eu-amide FRET peptide substrate (BACE-HTRF assay). […] DMSO is present at 5% final concentration in the assay. Following laser excitation of sample wells at 320 nm, the fluorescence signal at 620 nm is collected for 400 ms following a 50 μs delay on a RUBYstar HTRF plate reader (BMG Labtechnologies). Raw RFU data is normalized to maximum (1.0 nM BACE/DMSO) and minimum (no enzyme/DMSO) RFU values. […] The Ki values are calculated from the IC50 using the Cheng-Prusoff equation.

Row | SMILES | Ki [nM]
52 | C[C@@]1(c2cc(N)ccc2F)CS(=O)(=O)C2(CCCC2)C(=N)N1 | 1420
53 | C[C@@]1(c2cc(N)ccc2F)CS(=O)(=O)C2(CCOCC2)C(=N)N1 | 3580
54 | C[C@@]1(c2sc(Br)cc2Cl)CS(=O)(=O)C2(CCCC2)C(=N)N1 | 134
55 | C[C@@]1(c2sc(Br)cc2Cl)CS(=O)(=O)C2(CCCCC2)C(=N)N1 | 715
56 | C[C@@]1(c2sc(Br)cc2Cl)CS(=O)(=O)C2(CCOCC2)C(=N)N1 | 1090
57 | C[C@@]1(c2cc(NC(=O)c3ccc(Cl)cn3)ccc2F)CS(=O)(=O)C2(CCCCC2)C(=N)N1 [Example 24] | < 20
